Laboratory results as given in PMC11960969, “Mdga2 deficiency leads to an aberrant activation of BDNF/TrkB signaling that underlies autism-relevant synaptic and behavioral changes in mice” (PLOS Biology, 2025).
Where “and” joins values, the source holds several entries; their conditions need not be identical. Equal entries are not always repeated. No end group written: not given here.

What was measured:
[1] = system: human TrkB protein; experiment: GST pull-down of purified human TrkB with MDGA2 fragments; assay type: binding; conditions: in vitro, GST-tagged fragments
Procedure: Full-length human TrkB or MDGA2 cDNA was cloned into the pcDNA6-His vector. TrkB and MDGA2 proteins were expressed in HEK293T cells and then purified using a His-tag Protein Purification Kit (Beyotime, Cat# P2229S).
GST pull-down: GST-fused MDGA2 fragments (L1: MDGA2 aa 746−786; L2: MDGA2 aa 787−833) were expressed in bacteria and purified using Glutathione Sepharose 4B (GE Healthcare, Cat# 17-0756-01). Purified human TrkB protein was incubated with GST-fused MDGA2-L1, MDGA2-L2, or GST proteins and then pulled down with Glutathione Sepharose 4B.

[2] = system: mice; experiment: Three-chamber test (sociability and social novelty); assay type: in vivo, mouse; design: key to Sociability, Figure S4G: sociability index = (T_S1 - T_E)/(T_S1 + T_E), sniffing time; key to Social novelty, Figure S4G: social novelty index = (T_S2 - T_S1)/(T_S2 + T_S1), sniffing time; conditions: for Sociability, Figure S4G / Social novelty, Figure S4G: individual animals
Procedure: (§1) Six- to eight-week-old male mice were subjected to various behavioral tests. Mice were allowed to acclimatize in the testing room for 1 h prior to each test. Data were recorded and analyzed using Smart 3.0 video tracking system (Panlab, Harvard Apparatus).
This test was performed as described previously with minor modifications. The apparatus (60 W × 40 D × 22 H cm) has two transparent partitions separating the left, the middle, and the right chambers (20 × 40 cm each), and each partition has a small opening (5 × 5 cm) for access to each chamber. A fixed wire cylinder (8.5 cm diameter) was placed in each of the left and the right chambers. This test consisted of three phases: habituation, sociability test, and social novelty test. During habituation, both left and right cylinders were empty, and tested mice were placed in the center and allowed to explore freely for 10 min. During the sociability test, a gender-matched strange mouse (S1) was enclosed in one empty cylinder, and mice were allowed to freely explore for 10 min. Their time spent sniffing S1 or the other empty cylinder (E) was measured and the sociability preference index (T(S1 − -E)/T(S1 + E): time spent sniffing S1 minus time spent sniffing E over time spent sniffing both S1 and E) was calculated for comparison. During the social novelty test, another gender-matched unfamiliar mouse (S2) was placed into the empty cylinder and mice were allowed to freely explore for another 10 min. Their time spent sniffing S1 or S2 was measured and the social novelty preference index (T(S2 − S1)/T(S2 + S1): time spent sniffing S2 minus time spent sniffing S1 over time spent sniffing both S2 and S1) was calculated for comparison.

[3] = system: mice; experiment: Self-grooming test; assay type: in vivo, mouse; design: Repetitive behaviors / Repetitive behaviors, Figure S4E: unit not given here; conditions: for Repetitive behaviors: Figure 5D; for Repetitive behaviors / Repetitive behaviors, Figure S4E: Test2, individual animals
Procedure: as §1
Tested mice were placed individually in a clean cage with fresh bedding. After 5 min of habituation, the spontaneous behaviors of mice were recorded for 30 min and their self-grooming behavior was analyzed.

[4] = system: mice; experiment: Open field test; assay type: in vivo, mouse; design: OFT (open field test), Figure S4C: unit not given here; conditions: individual animals;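 note: values are total travel distance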
Procedure: as §1
Mice were gently placed in the center of an open field apparatus (40 × 40 × 40 cm), and allowed for a 10-min period of free movement. Total distance traveled and time spent in center were analyzed.

[5] = system: mice; experiment: Novel location recognition (NLR) test; assay type: in vivo, mouse; design: key to NLR (novel location recognition), Figure S4D: discrimination index = (T novel − T familiar)/(T novel + T familiar); conditions: for NLR (novel location recognition), Figure S4D: individual animals
Procedure: as §1
This test consists of habituation, training, and testing phases. Mice were first put into the open field apparatus described above for 10 min habituation. During the training phase, mice were allowed to freely explore two identical objects placed near two opposite corners of the open field arena for 8 min. Twenty-four hour later, one of the objects was moved to be close to a third corner (N: Novel location) while the other one was kept in the same spatial position (F: Familiar location). Mice were then tested for their exploration behavior with these objects for 8 min. The discrimination index (T(N − F)/T(N + F): time spent exploring the novel location minus time spent in familiar location over time spent to both novel and familiar location) was calculated to assess the recognition memory of mice.

[6] = system: TrkB signaling pathway; experiment: Immunoblotting of TrkB signaling in hippocampal neurons treated with NLGN1 siRNA; assay type: cell-based, mouse; conditions: NLGN1 knockdown in MDGA2-deficient hippocampal neurons, n = 4
Excerpt: NLGN1-targeting siRNA and scrambled control siRNA were synthesized by GenePharma (Shanghai, China). The sequences were as follows: NLGN1 siRNA sense: 5′-[…]-[…]-3′, NLGN1 siRNA antisense: 5′-[…]-3′. Scrambled control siRNA sense: 5′-[…]-3′, Scrambled control siRNA antisense: 5′-[…]-3′
Plasmids were transfected into HEK293T, SH-SY5Y, and HeLa cells using Turbofect transfection reagent (ThermoFisher), following the manufacturer’s instructions. Primary neurons were transfected with plasmids using Lipofectamine LTX (ThermoFisher, Cat# 15338100) or EntransterTM-H4000 transfection reagent (Engreen Bio-system, Cat# 4000-6), and with siRNAs using Lipofectamine RNAiMAX (ThermoFisher, Cat# 13778100), following manufacturers’ protocols. The transfection efficiency of both Lipofectamine LTX and EntransterTM-H4000 exceeded 50%. […]
Supplementary file pbio.3003047.s003.tif: S3 Fig MDGA2 competes with brain-derived neurotrophic factor (BDNF) for tyrosine kinase B (TrkB) binding. […] The pTyr levels were quantified by densitometry, normalized to total TrkB levels, and then compared to those of WT littermates. n = 4 per group. […] Immunoprecipitated BDNF levels in Het samples were quantified by densitometry, normalized to input levels, and compared to WT controls (set to one arbitrary units). n = 4 per group. […]

[7] = system: mice; experiment: Social affiliation test; assay type: in vivo, mouse; conditions: Mdga2+/- mice, 1 mg/kg i.p., 60 min, n = 10
Procedure: as §1
The test procedure was similar to that described previously. Briefly, a cylinder (8.5 cm in diameter) with a gender-matched reference mouse confined was placed at a specific location in an open field (40 cm in diameter). Tested mice were allowed to move freely in the open field for 7 min and their sniffing time with the reference mice was analyzed.

[8] = Mdga2+/- mice, 1 mg/kg i.p., 60 min, n = 10

For “L2: GST-fused MDGA2 fragment aa 787−833 (NADRSGSKEGFYMYIETSRPRLEGEKARLLSPVFSIAPKNPYGPTNT; also: GST-fused)”, which “interaction with TrkB (GST pull-down)” value [1] is on record?
The value was “interacted with TrkB”.

With “L1: GST-fused MDGA2 fragment aa 746−786 (FHCGFEDGNICLFTQDDTDNFDWTKQSTATRNTKYTPNTGP; cysteine pairing not given here; also: GST-fused)” as the molecule, how does the “interaction with TrkB (GST pull-down)” value [1] read?
Its value is “not GST-tagged L1 interacted with TrkB”.

How did the “Sociability, Figure S4G” value ([2]; Het+ANA12, Test1) turn out when O=C(Nc1ccccc1C(=O)NC1CCCCNC1=O)c1cc2ccccc2s1 (stereo not shown) [ANA12] was run?
Its value is 0.42 and 0.0153 and 0.50 and 0.46 and 0.24 and 0.59 and 0.23 and -0.06 and 0.14 and 0.34 and 0.26 and 0.0119 and 0.40.

And the “Social novelty, Figure S4G” value ([2]; Het+ANA12, Test1)?
The value was 0.24 and 0.45 and 0.21 and -0.09 and -0.20 and 0.40 and 0.11 and -0.13 and 0.0948 and 0.000711 and 0.03 and 0.09 and 0.14 and 0.35.

And the “Sociability, Figure S4G” value ([2]; Het+ANA12, Test2)?
The value was 0.33 and -0.13 and 0.40 and 0.15 and 0.02 and -0.01 and 0.31 and 0.35 and 0.08 and 0.17 and 0.12 and 0.27 and -0.04 and -0.19 and 0.54.

And the “Social novelty, Figure S4G” value ([2]; Het+ANA12, Test2)?
The value was 0.15 and -0.17 and 0.23 and 0.32 and 0.18 and 0.16 and 0.44 and -0.13 and 0.0424 and -0.07 and 0.41 and -0.0144 and 0.06 and 0.0317 and 0.11.

What about the “Sociability, Figure S4G” value ([2]; WT+ANA12, Test1) of the same molecule?
The value was 0.72 and 0.46 and 0.41 and 0.66 and 0.61 and 0.33 and 0.44 and 0.36 and 0.55 and -0.10 and 0.22 and -0.13 and 0.11.

What about the “Social novelty, Figure S4G” value ([2]; WT+ANA12, Test1) of the same molecule?
Its value is 0.05 and 0.43 and 0.53 and -0.13 and 0.39 and 0.40 and 0.32 and 0.62 and 0.44 and 0.33 and -0.01 and 0.18 and 0.61 and -0.10.

And the “Sociability, Figure S4G” value ([2]; WT+ANA12, Test2)?
The value was 0.39 and 0.66 and 0.10 and -0.24 and 0.51 and 0.65 and 0.38 and 0.48 and 0.50 and 0.31 and 0.54 and 0.29 and 0.71 and 0.09 and 0.47.

What about the “Social novelty, Figure S4G” value ([2]; WT+ANA12, Test2) of the same molecule?
The value was -0.06 and 0.16 and 0.50 and 0.26 and 0.08 and 0.12 and 0.42 and 0.30 and 0.55 and 0.58 and 0.27 and 0.11 and 0.33.

What about the Repetitive behaviors ([3]; Het+ANA12) of the same molecule?
Its Repetitive behaviors is 19 and 17 and 36 and 33 and 26 and 14 and 10 and 20 and 12 and 38 and 29 and 30 and 22 and 16.

What about the Repetitive behaviors ([3]; WT+ANA12) of the same molecule?
The Repetitive behaviors was 32 and 20 and 14 and 10 and 7 and 25 and 9 and 18 and 8 and 11 and 13.

And the “Repetitive behaviors, Figure S4E” value ([3]; Het+ANA12)?
The value was 15 and 19 and 11 and 20 and 12 and 38 and 30 and 29 and 18 and 13 and 26 and 32 and 22 and 35.

And the “Repetitive behaviors, Figure S4E” value ([3]; WT+ANA12)?
The value was 12 and 22 and 6 and 30 and 5 and 14 and 8 and 18 and 10 and 16 and 9 and 20 and 17 and 11.

What about the “OFT (open field test), Figure S4C” value ([4]; Het+ANA12, Test1) of the same molecule?
The value was 39.1 and 38.5 and 30.9 and 34.7 and 41.8 and 45.2 and 48.5 and 34.6 and 26.5.

What about the “OFT (open field test), Figure S4C” value ([4]; Het+ANA12, Test2) of the same molecule?
Its value is 19.1 and 38.5 and 35 and 43.1 and 30.9 and 22 and 39 and 30.4 and 45.6 and 31.5 and 29.6 and 25.1 and 49.6 and 27.8 and 28.2.

And the “OFT (open field test), Figure S4C” value ([4]; WT+ANA12, Test1)?
The value was 46.5 and 20.6 and 31.2 and 41.8 and 24 and 27.1 and 44.6 and 35 and 26.6 and 21.8 and 34.8 and 37 and 41.1 and 19.1 and 26.9.

What about the “OFT (open field test), Figure S4C” value ([4]; WT+ANA12, Test2) of the same molecule?
Its value is 43.3 and 20.5 and 26 and 46 and 26.1 and 37.1 and 47.7 and 21.2 and 24.6 and 27.2 and 22 and 34.1 and 17 and 29.8 and 32.4.

What about the “NLR (novel location recognition), Figure S4D” value (“NLR” for short) ([5]; Het+ANA12, Test1) of the same molecule?
The value was -0.13 and 0.49 and 0.11 and 0.03 and 0.36 and -0.0741 and 0.20 and 0.55 and 0.14 and 0.51 and 0.0439 and 0.0756 and 0.45 and 0.32 and -0.03.

And the “NLR” value ([5]; Het+ANA12, Test2)?
Its value is 0.15 and 0.00112 and 0.11 and 0.43 and 0.18 and -0.10 and 0.51 and 0.26 and -0.18 and 0.30 and 0.00129 and 0.14 and -0.04.

What about the “NLR” value ([5]; WT+ANA12, Test1) of the same molecule?
The value was 0.36 and 0.47 and 0.12 and 0.06 and 0.23 and 0.50 and 0.35 and 0.32 and -0.035 and 0.43 and 0.37 and -0.09 and 0.25 and 0.51 and -0.07.

What about the “NLR” value ([5]; WT+ANA12, Test2) of the same molecule?
Its value is -0.05 and 0.41 and 0.35 and 0.09 and 0.46 and -0.12 and 0.53 and 0.45 and 0.17 and 0.20 and -0.17 and 0.62 and 0.54.

Which “effect on TrkB signaling pathway” value [6] does the source give for “NLGN1 siRNA: NLGN1-targeting siRNA, sense 5′-CCUGUGUGGU-UCACUAAUATT-3′ (sense CCUGUGUGGUUCACUAAUATT; antisense UAUUAGUGAACCACACAGGTT; chemistry not given here)” here?
Its value is “treated with either vehicle or NLGN1 siRNA”.

With CCN(CC)Cc1cccc(/C=C/c2nc3ccc(F)cc3c(=O)n2-c2ccccc2Cl)n1 [CP-465022, reference compound] as the molecule, how does the sociability [2, 8] read?
Its sociability is “rapidly promoted social affiliation and sociability”.

What about the social novelty [2, 8] of the same molecule?
Its social novelty is “without affecting social novelty”.

What about the repetitive self-grooming behavior [3, 8] of the same molecule?
The repetitive self-grooming behavior was “without affecting social novelty, recognition memory, and repetitive self-grooming behavior”.

And the social affiliation [7]?
Its social affiliation is “rapidly promoted social affiliation”.

What about the recognition memory [5, 8] of the same molecule?
Its recognition memory is “without affecting social novelty, recognition memory”.
